In US9409952B2, “Peptide-compound cyclization method” (Chugai Seiyaku Kabushiki Kaisha, priority 2011, dated 2016):
Like-named read-outs stand apart in the source and are kept apart here. Starred links: 1 amine or outer side, 2 acyl side, 3 side chain; linkers in the order of their positions; H or OH if unused. Positions of bridges follow the written chain, without caps; N, C: chain ends. Non-standard residues stand in square brackets, D forms with d. Residues, ends and D or L forms follow the SMILES beside them. *: point of attachment. Phe(3-(CH2)4CO) = O=C([C@H](Cc1cccc(CCCCC(=O)[*:3])c1)N[*:1])[*:2]; NMePhe(3-Cl) = CN[C@@H](Cc1cccc(Cl)c1)C(=O)O; hhPhe = N[C@@H](CCCc1ccccc1)C(=O)O; NMeF = CN[C@@H](Cc1ccccc1)C(=O)O; NMeGABA = CN(CCCC(=O)[*:2])[*:1]; NMeI = CC[C@H](C)[C@H](NC)C(=O)O; NMeβAla = CN(CCC(=O)[*:2])[*:1]; Aoc(2) = CCCCCC[C@H](N)C(=O)O; NMeL = CN[C@@H](CC(C)C)C(=O)O; Phg = N[C@H](C(=O)O)c1ccccc1; NMeV = CN[C@H](C(=O)O)C(C)C; NMeS = CN[C@@H](CO)C(=O)O; NMeA = CN[C@@H](C)C(=O)O; Piperidide = C1CCN(*)CC1; β3hA = C[C@H](N)CC(=O)O; Abu = CC[C@H](N)C(=O)O; Sar = CNCC(=O)O; tBu = CC(C)(C)*

Legend:
[1] = PAMPA (parallel artificial membrane permeability assay); format: in vitro ADME; settings: for Papp at 18 hours, 50 µM: PAMPA
Outline: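 Artificial membrane was 10% (w/v) egg lecithin plus 0.5% (w/v) cholesterol in dodecane on a PVDF filter. A 10 mM DMSO stock was added at 0.5% (v/v) to donor buffer (50 mM MOPSO, pH 6.5, 5.0% glycocholic acid). After 18 h at 37 °C, LC/MS or LC/UV gave donor and acceptor levels for Pe.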

[2] = Metabolic stability in human hepatic microsome; format: in vitro ADME
[3] = membrane permeation rate (Pe), 50 mM MOPSO buffer pH 6.5 with 5.0% glycocholic acid, 37° C., 18 hours, read-out: iPAMPA Pe
[4] = microsomes, pH 7.4, human hepatic microsome, NADPH(+), read-out: CL NADPH(+)
[5] = human, microsomes, pH 7.4, CL NADPH(+)
[6] = membrane permeation rate (Pe), 50 mM MOPSO buffer pH 6.5 with 5.0% glycocholic acid, 37° C., 18 hours

Compound | Papp at 18 hours, 50 µM [1, 3] | microsomal CLint at 1 uM [2, 4] | further results
CC(C)C[C@H]1C(=O)NCC(=O)N[C@H](C(=O)N2CCCCC2)CC(=O)N[C@@H](c2ccccc2)C(=O)N[C@@H]([C@@H](C)O)C(=O)N(C)[C@@H](C)C(=O)N(C)[C@@H](Cc2ccccc2)C(=O)N(C)[C@@H](Cc2ccccc2)C(=O)N[C@@H](COC(C)(C)C)C(=O)N1C [DP-563] ([Phg]T[NMeA][NMeF][NMeF]S(tBu)[NMeL]GD-Piperidide; lactam N-9) | 35 ×10⁻⁶ cm/s | 111 µL/min/mg | 
CC[C@H](C)[C@H]1C(=O)N[C@H](C(=O)N2CCCCC2)CC(=O)N[C@H](C(C)C)C(=O)N[C@@H]([C@@H](C)O)C(=O)N(C)CC(=O)N[C@@H](CC(C)C)C(=O)N2CCC[C@H]2C(=O)N(C)[C@@H](C(C)C)C(=O)N[C@@H](Cc2ccccc2)C(=O)N(C)[C@@H](Cc2ccccc2)C(=O)N(C)[C@@H](CC(C)C)C(=O)N[C@@H](C)C(=O)N1C [DP-56] ([dV]T[Sar]LP[NMeV]F[NMeF][NMeL]A[NMeI]D-Piperidide; lactam N-12) |  |  | Papp at 18 hours, 50 µM ([1]; pH 6.5): 30 ×10⁻⁶ cm/s; microsomal CLint at 1 uM [2, 5]: 43 µL/min/mg
CC[C@H](C)[C@@H]1NC(=O)[C@H](CC(C)C)NC(=O)[C@H](C(C)C)NC(=O)[C@H](CC(C)C)N(C)C(=O)[C@H](CC(C)C)NC(=O)[C@H](Cc2ccccc2)NC(=O)[C@H]([C@@H](C)O)NC(=O)[C@H](C)N(C)C(=O)[C@H](CC(C)C)NC(=O)[C@H](C)N(C)C(=O)C[C@@H](C(=O)N2CCCCC2)NC1=O [DP-478] ([NMeA]L[NMeA]TFL[NMeL]VLID-Piperidide; lactam N-11) | 18 ×10⁻⁶ cm/s | 50 µL/min/mg | 
CC(C)C[C@@H]1NC(=O)[C@H](C(C)C)N(C)C(=O)[C@H](CCCc2ccccc2)NC(=O)CN(C)C(=O)[C@H]([C@@H](C)O)NC(=O)[C@H](C)N(C)C(=O)[C@H](CC(C)C)N(C)C(=O)[C@@H](C(C)C)NC(=O)C[C@@H](C(=O)N2CCCCC2)NC(=O)[C@H](C)NC(=O)[C@H](CC(C)C)N(C)C1=O [DP-737] ([dV][NMeL][NMeA]T[Sar][hhPhe][NMeV]L[NMeL]AD-Piperidide; lactam N-11) | 30 ×10⁻⁶ cm/s | 45 µL/min/mg | 
CC[C@H](C)[C@@H]1NC(=O)[C@H](Cc2ccccc2)NC(=O)[C@H](CC(C)C)NC(=O)[C@@H](C)NC(=O)C[C@@H](C(=O)N2CCCCC2)NC(=O)[C@H](Cc2ccccc2)NC(=O)[C@H](CC(C)C)NC(=O)[C@H]([C@@H](C)O)NC(=O)[C@H](Cc2ccccc2)NC(=O)[C@H](CC(C)C)NC1=O [DP-515] ([dA]LFILFTLFD-Piperidide; lactam N-10) |  | 23 µL/min/mg | iPAMPA Pe [1, 6]: 1.0E−07
CC(C)C[C@H]1C(=O)N[C@H](C(=O)N2CCCCC2)CC(=O)N(C)CC(=O)N[C@@H]([C@@H](C)O)C(=O)N(C)[C@@H](C)C(=O)N(C)[C@@H](Cc2ccccc2)C(=O)NCC(=O)N(C)[C@@H](Cc2ccccc2)C(=O)N(C)[C@@H](CC(C)C)C(=O)N(C)[C@@H](CC(C)C)C(=O)N1C [DP-175] ([Sar]T[NMeA][NMeF]G[NMeF][NMeL][NMeL][NMeL]D-Piperidide; lactam N-10) | 48 ×10⁻⁶ cm/s | 94 µL/min/mg | 
CC(C)C[C@H]1C(=O)N(C)[C@@H](Cc2ccccc2)C(=O)N[C@@H](C)C(=O)N2CCC[C@H]2C(=O)N(C)[C@@H](CC(C)C)C(=O)N(C)[C@@H](Cc2ccccc2)C(=O)N(C)[C@@H](C(C)C)C(=O)N[C@H](C(=O)N2CCCCC2)CC(=O)N[C@H](C(C)C)C(=O)N[C@@H]([C@@H](C)O)C(=O)N(C)CC(=O)N1C [DP-66] ([dV]T[Sar][NMeL][NMeF]AP[NMeL][NMeF][NMeV]D-Piperidide; lactam N-11) |  |  | Papp at 18 hours, 50 µM ([1]; pH 6.5): 19 ×10⁻⁶ cm/s; microsomal CLint at 1 uM [2, 5]: 69 µL/min/mg
CC(C)C[C@@H]1NC(=O)[C@H](CC(C)C)N(C)C(=O)[C@H](C)NC(=O)[C@H](C(C)C)N(C)C(=O)CN(C)C(=O)[C@H]([C@@H](C)O)NC(=O)[C@H](C)N(C)C(=O)[C@H](CC(C)C)N(C)C(=O)[C@@H](C)NC(=O)C[C@H](C)NC1=O [DP-818] (cyclo(A[NMeL]L[β3hA][dA][NMeL][NMeA]T[Sar][NMeV])) | 2 ×10⁻⁶ cm/s | 1 µL/min/mg | 
CCCCCC[C@@H]1NC(=O)[C@H](CO)N(C)C(=O)[C@H](CC(C)C)N(C)C(=O)[C@H](CC(C)C)N(C)C(=O)[C@H](CC(C)C)N(C)C(=O)[C@@H](C)NC(=O)[C@H](CC)NC(=O)[C@H](CC(C)C)N(C)C(=O)C[C@H](C)NC(=O)[C@H](CC(C)C)N(C)C(=O)CN(C)C1=O [DP-645] (cyclo([Abu][dA][NMeL][NMeL][NMeL][NMeS][Aoc(2)][Sar][NMeL][β3hA][NMeL])) | 49 ×10⁻⁶ cm/s | 74 µL/min/mg | 
CC[C@H](C)[C@H](NC(=O)[C@H](Cc1ccccc1)N(C)C(=O)[C@H](Cc1cccc(Cl)c1)N(C)C(=O)[C@H](C)N(C)C(=O)[C@@H]1CCCN1C(=O)[C@@H]1CC(=O)N[C@@H](C)C(=O)N(C)[C@@H](CC(C)C)C(=O)N(C)[C@@H](Cc2ccccc2)C(=O)N[C@@H]([C@@H](C)O)C(=O)N(C)[C@@H](Cc2ccccc2)C(=O)N[C@@H](CC(C)C)C(=O)N1)C(=O)N1CCCCC1 [DP-915] (A[NMeL][NMeF]T[NMeF]LDP[NMeA][NMePhe(3-Cl)][NMeF]I-Piperidide; lactam N-7) |  | 89 µL/min/mg | iPAMPA Pe [1, 6]: 1.0E−07
CC[C@H](C)[C@H]1C(=O)NCC(=O)N(C)[C@@H](CC(C)C)C(=O)N[C@@H](CC(C)C)C(=O)N[C@H](C(=O)N2CCCCC2)CC(=O)N(C)CCC(=O)N(C)[C@@H](C)C(=O)N[C@@H](CC(C)C)C(=O)N[C@@H]([C@@H](C)O)C(=O)N2CCC[C@H]2C(=O)N[C@@H](Cc2ccccc2)C(=O)N(C)[C@@H](Cc2ccccc2)C(=O)N1C [DP-91] ([NMeβAla][NMeA]LTPF[NMeF][NMeI]G[NMeL]LD-Piperidide; lactam N-12) |  |  | Papp at 18 hours, 50 µM ([1]; pH 6.5): 20 ×10⁻⁶ cm/s; microsomal CLint at 1 uM [2, 5]: 58 µL/min/mg
CC(C)C[C@@H]1NC(=O)[C@H](CC(C)C)N(C)C(=O)[C@H](C)NC(=O)[C@H](C(C)C)N(C)C(=O)[C@H](Cc2ccccc2)NC(=O)CN(C)C(=O)[C@H]([C@@H](C)O)NC(=O)[C@H](C)N(C)C(=O)[C@H](CC(C)C)N(C)C(=O)[C@@H](C)NC(=O)C[C@@H](C(=O)N2CCCCC2)NC1=O [DP-95] ([dA][NMeL][NMeA]T[Sar]F[NMeV]A[NMeL]LD-Piperidide; lactam N-11) | 7.3 ×10⁻⁶ cm/s | 19 µL/min/mg | 
CC[C@H](C)[C@@H]1NC(=O)[C@H](CC(C)C)N(C)C(=O)[C@H](C)NC(=O)CCCN(C)C(=O)C[C@H](C)NC(=O)[C@H]([C@@H](C)O)NC(=O)[C@H](Cc2ccccc2)NC(=O)[C@H](C(C)C)N(C)C(=O)[C@H](Cc2ccccc2)N(C)C1=O [DP-824] (cyclo(A[NMeL]I[NMeF][NMeV]FT[β3hA][NMeGABA])) | 29 ×10⁻⁶ cm/s | 501 µL/min/mg | 
C=C1CCC(=O)NCC(=O)N(C)[C@@H](C)C(=O)N[C@@H](CC(C)C)C(=O)N[C@@H](C(C)C)C(=O)N(C)[C@@H](CC(C)C)C(=O)N[C@@H](Cc2ccccc2)C(=O)N(C)[C@@H](Cc2ccccc2)C(=O)N[C@@H]([C@@H](C)CC)C(=O)N(C)[C@@H](C)C(=O)N[C@@H](CC(C)C)C(=O)N[C@@H]([C@@H](C)O)C(=O)N[C@H](C(=O)N2CCCCC2)Cc2ccc1cc2 [DP-887] | 3.9 ×10⁻⁶ cm/s | 103 µL/min/mg | 
CC[C@H](C)[C@H]1C(=O)N(C)[C@@H](C)C(=O)N[C@@H](Cc2ccccc2)C(=O)N[C@@H]([C@@H](C)O)C(=O)N[C@@H](CC(C)C)C(=O)N(C)[C@@H](Cc2ccccc2)C(=O)N(C)[C@@H](C(C)C)C(=O)N[C@H](C(=O)N2CCCCC2)CC(=O)N[C@@H](C)C(=O)N[C@@H](CC(C)C)C(=O)N1C [DP-18] (AL[NMeI][NMeA]FTL[NMeF][NMeV]D-Piperidide; lactam N-10) |  |  | Papp at 18 hours, 50 µM ([1]; pH 6.5): 30 ×10⁻⁶ cm/s; microsomal CLint at 1 uM [2, 5]: 202 µL/min/mg
CC[C@H](C)[C@H]1C(=O)N[C@@H](CC(C)C)C(=O)N(C)[C@@H](C)C(=O)N(C)[C@@H](Cc2ccccc2)C(=O)NCC(=O)N[C@@H]([C@@H](C)O)C(=O)N[C@@H](Cc2ccccc2)C(=O)N(C)[C@@H](CC(C)C)C(=O)N2CCC[C@H]2C(=O)N[C@H](C(=O)N2CCCCC2)CC(=O)N[C@H](C(C)C)C(=O)N[C@@H](CC(C)C)C(=O)N1C [DP-218] ([dV]L[NMeI]L[NMeA][NMeF]GTF[NMeL]PD-Piperidide; lactam N-12) | 33 ×10⁻⁶ cm/s |  | microsomal CLint at 1 uM ([2]; human, liver microsomes, pH 7.4, human hepatic microsome, NADPH(+), read-out: CL NADPH(+)): 18 µL/min/mg
CC(C)C[C@H]1C(=O)N[C@@H](COC(C)(C)C)C(=O)N(C)[C@@H](CC(C)C)C(=O)N[C@H](C(=O)N2CCCCC2)Cc2cccc(c2)CCCCC(=O)N(C)[C@@H](C)C(=O)N(C)[C@@H](Cc2ccccc2)C(=O)N(C)[C@@H](CC(C)C)C(=O)N[C@@H]([C@@H](C)O)C(=O)N(C)CC(=O)N1C [DP-838] ([NMeA][NMeF][NMeL]T[Sar][NMeL]S(tBu)[NMeL][Phe(3-(CH2)4CO)]-Piperidide; lactam N-9) | 54 ×10⁻⁶ cm/s | 224 µL/min/mg | 
CC(C)C[C@H]1C(=O)N[C@H](C(=O)N2CCCCC2)CC(=O)N(C)CCC(=O)N[C@@H]([C@@H](C)O)C(=O)N(C)[C@@H](C)C(=O)N[C@@H](COC(C)(C)C)C(=O)N(C)[C@@H](Cc2ccccc2)C(=O)N1C [DP-532] ([NMeβAla]T[NMeA]S(tBu)[NMeF][NMeL]D-Piperidide; lactam N-7) | 20 ×10⁻⁶ cm/s | 105 µL/min/mg | 
